{"source": "paper PMC4122495", "about": "“Small Molecule Deubiquitinase Inhibitors Promote Macrophage Anti-Infective Capacity” (PLoS ONE, 2014)", "key": {"MNV-1": {"system": "MNV-1", "assay": "MNV-1 infection of RAW264.7 cells and plaque assay", "assay_type": "cell-based, murine norovirus", "settings": "RAW264.7 pre-treated 0.5 h with 2.5 µM; MOI 5; 8 h infection; plaque assay", "protocol": "RAW264.7 cells were plated at a density of 5×10^5 cells/ml in each well of a 12-well plate and allowed to attach overnight. The following day, cells were incubated with either 5 µM WP1130 or 2.5 µM compound 9, for 30 min at 37°C. After incubation, cells were placed on ice for 1 hour where they were infected with MNV-1 at an MOI of 5. Cells were then washed three times with ice-cold PBS. Cells treated with compound 9 received media alone after washing, while media containing WP1130 or DMSO was added back to cells and the infection was allowed to proceed for 8 hours. Cells were freeze-thawed twice, and viral titers were determined by plaque assay as previously described."}, "RAW264.7 cells": {"system": "RAW264.7 cells", "assay": "WST-1 cell viability assay, conditions mimicking the bacterial infection protocol", "assay_type": "cell-based, murine", "settings": "2.5 µM, 0.5 h pre-treatment, then 8 h", "protocol": "For cell viability assays in conditions that mimicked the bacterial infection protocol, RAW264.7 cells were cultured at an initial density of 4×10^6 cells per 96-well plate. Cells were treated with 2.5 or 5 µM DUB inhibitors dissolved in DMSO for 0.5 h or 1 h or with equivalent volume of DMSO. DUB inhibitors were removed after treatment by washing three times with PBS, and cells were incubated in culture media for 6.5 h at 37°C. The WST-1 reagent (Roche, San Francisco, CA), which measures mitochondrial dehydrogenase activity, was diluted 1 in 10 in media and cells were incubated at 37°C for an additional 1.5 h. The optical density at 440 nm (OD440) and 600 nm (OD600) was determined and results were normalized to DMSO-treated cells."}, "L. monocytogenes [1]": {"system": "L. monocytogenes", "assay": "Bacterial growth curve in BHI broth culture", "assay_type": "cell-based, Listeria monocytogenes 10403S", "settings": "2.5 µM in BHI broth", "protocol": "(§1) For bacterial growth curve in broth culture, an overnight culture of L. monocytogenes was back-diluted 1∶50 into BHI broth in the presence of 5 µM of compounds 1 to 4, 2.5 µM of compound 9 or equivalent volume of DMSO and incubated statically at 30°C for up to 8 h. At indicated time points (0, 2, 4, 6 and 8 h), a 50 µl-aliquot of bacteria was serially diluted and plated on LB agar to determine the number of CFU. To test the bactericidal properties of compound 9, an overnight culture of L. monocytogenes was back-diluted 1∶50 into BHI broth and allowed to grow at 37°C with shaking until an optical density at 600 nm (OD600) of ∼0.6–0.7 was obtained. Bacteria were then exposed to 1, 2.5 or 5 µM of compound 9 or equivalent volume of DMSO for 2 h at 4°C. After incubation, bacteria were serially diluted and plated on LB agar to determine CFU."}, "[2]": {"assay": "Aqueous kinetic solubility", "assay_type": "physicochemical"}, "[3]": {"system": "ubiquitinated proteins (DUB activity) in RAW264.7 cells", "assay": "Anti-ubiquitin immunoblot of RAW264.7 whole-cell lysates", "assay_type": "cell-based, murine", "settings": "2.5 µM, uninfected RAW264.7 cells, treatment 0.5 h to 6 h", "protocol": "RAW264.7 cells were cultured at an initial density of 4×10^6 cells per 6-well plate and allowed to adhere overnight. Macrophages were treated with 2.5 µM compound 9 for the indicated period of time. To obtain whole-cell lysates, cells were lysed in cell lysis buffer (10 mM Tris pH 8, 150 mM NaCl, 1% NP-40, 10 mM EDTA pH 8, 1 mM DTT and 1X protease inhibitors), incubated for 15 min on ice and briefly sonicated. Samples were diluted in 5X concentrated sample buffer containing β-mercaptoethanol and denatured at 95°C for 10 min. The samples were separated by SDS-PAGE on an 8% acrylamide gel and transferred to polyvinyldene fluoride membrane (PVDF, Millipore). Immunodetection was performed using an anti-ubiquitin monoclonal antibody (P4D1 clone, Santa Cruz), according to manufacturer’s instructions."}, "HG23 cells": {"system": "HG23 cells", "assay": "WST-1 cell viability assay in HG23 replicon cells", "assay_type": "cell-based, human", "settings": "2.5 µM for 2 h, then 22 h", "protocol": "For cell viability assays in conditions that mimicked the viral infections, RAW264.7 cells were cultured as described above and treated for 0.5 h with 5 µM WP1130 or 2.5 µM compound 9, incubated for 1 h on ice, washed three times with ice-cold PBS and incubated for an additional 8 h in presence of DMSO and WP1130 only. One and a half hours prior to the end of the experiment, the WST-1 reagent was diluted 1 in 10 in the media. For cell viability in HG23 replicon cells, DMSO and WP1130 remained on the cells for 24 h before incubation with the WST-1 reagent, whereas compound 9 was removed after a 2 h exposure and the WST-1 reagent added after an additional 22 h."}, "Norwalk virus replicon": {"system": "Norwalk virus replicon", "assay": "HuNoV (Norwalk virus) replicon assay in HG23 cells, qRT-PCR", "assay_type": "cell-based, human norovirus", "settings": "2.5 µM for 2 hours, genomes quantitated after 24 h by qRT-PCR, normalized to DMSO", "protocol": "HG23 cells containing the Norwalk virus replicon plasmid under G418-selection were plated at 5×10^5 cells per well in 12-well plates and allowed to attach overnight. Afterwards, media was aspirated and replaced with fresh media containing DMSO, 5 µM WP1130, or 2.5 µM compound 9. DMSO and WP1130 remained on the cells for 24 hours, whereas compound 9 was removed after 2 hours. At the end of the experiment, media was aspirated, cells were washed once with PBS and total cellular RNA was isolated using the QIAGEN RNeasy Mini kit (QIAGEN, Valencia, CA). Following the manufacturer’s protocol, RNA was subjected to two rounds of DNase treatment. First, an on-column RNase-free DNase treatment (QIAGEN, Valencia, CA) was performed for 15 minutes at room temperature. After elution, another round of DNase treatment was performed using the DNA-free DNase removal kit (Ambion, Austin, TX). RNA concentration and purity were measured using a spectrophotometer, calculating the 260/280 ratio. RNA integrity (as well as the absence of DNA contamination) was confirmed by One-Step Reverse Transcription-Polymerase Chain Reaction (RT-PCR) using “No RT” controls. Norwalk virus genomes were then quantitated by qRT-PCR as previously described."}, "L. monocytogenes [4]": {"system": "L. monocytogenes", "assay": "Bactericidal test on exponential-phase bacteria, 2 h at 4°C", "assay_type": "cell-based, Listeria monocytogenes 10403S", "settings": "concentrations up to 5 µM, exponential growth phase", "protocol": "as §1"}}}
{"smiles": "CCCC(NC(=O)/C(C#N)=C/c1nc(Cl)ccc1Cl)c1ccc(OCCN2CCOCC2)cc1", "note": "(stereo not shown) [Compound 9]", "values": [{"measurement": "decrease in MNV-1 titers compared to DMSO-treated cells", "setting": "MNV-1", "value": "more than 2.5 logs"}, {"measurement": "cellular toxicity (WST-1 viability)", "setting": "RAW264.7 cells", "value": "little cellular toxicity"}, {"measurement": "effect on overall CFU per ml by 8 h in broth culture", "setting": "L. monocytogenes [1]", "value": "did not significantly affect overall CFU per ml by 8 h"}, {"measurement": "effect on growth rate in axenic broth culture", "setting": "L. monocytogenes [1]; up to 8 h", "value": "modest decrease in the growth rate"}, {"measurement": "solubility kinetic", "setting": "[2]; aqueous (not further specified)", "value": "~20", "unit": "µM"}, {"measurement": "improvement in solubility vs WP1130", "setting": "[2]; compound 9 compared to WP1130", "value": "> 6", "unit": "fold"}, {"measurement": "accumulation of ubiquitinated proteins (immunoblot)", "setting": "[3]", "value": "ubiquitinated proteins accumulated as soon as 0.5 h"}, {"measurement": "toxicity (WST-1 viability)", "setting": "HG23 cells", "value": "no toxicity"}, {"measurement": "reduction of detectable Norwalk virus genomes", "setting": "Norwalk virus replicon", "value": 84.7, "unit": "%"}, {"measurement": "bactericidal activity", "setting": "L. monocytogenes [4]", "value": "No bactericidal activity"}]}
